What all share (assay type): in vivo, rats
The subject of series [1] is antigen-adjuvant-induced inflammation. As to the kind of experiment: antigen-adjuvant-induced inflammation, right hind paw swelling by volumetry. Conditions: for inhibition activity against antigen-adjuvant-induced inflammations / average of the swelling ratios: 10 mg/kg intraperitoneally; for average of the swelling ratios: 0.5 hour after administration of antigen and adjuvant, versus Control group. The protocol: At first, five groups each consisting of five SD male rats weighing 180 to 220 g (total 25 rats) were prepared, and each rat was measured for a size of the subplantar region of the right hind paw. As an antigen to cause an antigen-adjuvant-induced inflammation, 0.2 mg/rat of egg-white albumin was used. Further, as an immune aid (adjuvant), a mixture consisting of 4 mg/rat of aluminum hydroxide and 0.1 ml/rat of pertussis vaccine was prepared.
One out of the five groups was used as Control group. A physiological saline solution of 10 % Nikkol (trade name, dissolving aid, supplied by Nikko Chemical Co., Ltd.) was administered intraperitoneally to each rat, and 0.5 hour after the administration of the physiological saline solution of 10 % Nikkol, the above antigen and adjuvant were administered intracutaneously into the subplantar region of the right hind paw. Then, 0.5, 1, 2, 4, 6, 12 and 24 hours after the administration of the antigen and adjuvant, the swelling on the subplantar region of the right hind paw of each rat was measured by volumetry. And, the average of swelling ratios of the group in every measurement was determined on the basis of the measurement values of the sizes of subplantar regions of the right hind paws of the rats obtained before the administration of the physiological saline solution of 10 % Nikkol.
One of the remaining four groups was used as Example group @. A physiological saline solution of 10 % Nikkol containing VIE-MAN was administered intraperitoneally into each rat of this group in such a dose that the amount of VIE-MAN was 10 mg/kg, and 0.5 hours after the administration of the physiological saline solution of 10 % Nikkol containing VIE-MAN, the above antigen and adjuvant were administered intracutaneously into the subplantar region of the right hind paw. Thereafter, the swelling on the subplantar region of the right hind paw of each rat was measured in the same manner as that for Control group, and the average of swelling ratios of the group in every measurement was determined.
The same procedure as that for Example group ⑧ was carried out except that a physiological saline solution of 10 % Nikkol containing hydrocortisone which was an anti-inflammatory preparation (immunosuppressive preparation) in place of the physiological saline solution of 10 % Nikkol containing VIE-MAN was administered intraperitoneally in such a dose that the amount of the hydrocortisone was 10 mg/kg.
The same procedure as that for Example group ⑧ was carried out except that a physiological saline solution of 10 % Nikkol containing diphenhydramine which was an antihistamine preparation in place of the physiological saline solution of 10 % Nikkol containing VIE-MAN was administered intraperitoneally in such a dose that the amount of the diphenhydramine was 10 mg/kg.
The same procedure as that for Example group ⑧ was carried out except that a physiological saline solution of 10 % Nikkol containing indomethacin which was a nonsteroidal anti-inflammatory preparation (antipyretic analgesic antiphlogistic preparation) in place of the physiological saline solution of 10 % Nikkol containing VIE-MAN was administered intraperitoneally in such a dose that the amount of the indomethacin was 10 mg/kg.
At first, four groups each consisting of five male SD rats weighing 180 to 220 g (total 20 rats) were prepared, and each rat was measured for a size of the subplantar region of the right hind paw. As an antigen to cause an antigen- adjuvant-induced inflammation, 0.2 mg/rat of egg-white albumin was prepared. Further, as an immune aid (adjuvant), a mixture consisting of 4 mg/rat of aluminum hydroxide and 0.1 ml/rat of pertussis vaccine was prepared.
One out of the four groups was used an Control group, and the procedure for Control group in Example 4 was repeated to determine the average of the swelling ratios as a group unit.

Series [2] concerns stomach (mucosal ulcer in the glandular portion). The protocol:
15 male SD rats weighing 180 to 220 g were used. These rats were fasted for 24 hours, and separated to three groups each consisting of 5 rats.
Then, one group was used as Control group. A physiological saline solution of 10 % Nikkol was administered intraperitoneally, and the rats were sacrificed with ether 16 hours after the administration. The stomach of each rat was removed, and after 10 ml of physiological saline was injected into the stomachs, the stomachs were fixed by immersing them in a 1 % formalin for 10 minutes. Each stomach was dissected along the greater curvatura, and the length (mm) of mucosal ulcer which occurred in the glandular portion was measured under an anatomical microscope (x 10). The average of the ulcer lengths of the five rats was taken as an ulcer index.
One out of the remaining two groups was used as Example group @. The procedure for Control group was repeated except that a physiological saline solution of 10 % Nikkol containing VIE-MAN in place of the physiological saline solution of 10 % Nikkol was administered intraperitoneally in such a dose that the amount of VIE-MAN was 300 mg/kg, and the ulcer index was determined.
The remaining one group was used as Comparative Example group ⓘ. The procedure for Example group 17 was repeated except that a physiological saline solution of 10 % Nikkol containing indomethacin, which was a nonsteroidal anti-inflammatory preparation (antipyretic analgesic antiphlogistic preparation), in place of the physiological saline solution of 10 % Nikkol was administered intraperitoneally in such a dose that the amount of the indomethacin was 20 mg/kg, and the ulcer index was determined.

The subject of a further series is adjuvant arthritis. As to the kind of experiment: adjuvant arthritis (Freund's complete adjuvant), right hind paw swelling by volumetry. Conditions: Example 6, Fig. 5; for inhibition activity against acute inflammation (before the 14th day) and adjuvant arthritis (after 17th day): VIE-MAN 10 and 30 mg/kg/day, depending upon the dose, indomethacin 10 mg/kg/day, intraperitoneally. The protocol: 24 male SD rats weighing 180 to 220 g were used, and measured for a size of the subplantar region of the right hind paw. As a substance to cause adjuvant arthritis, 0.05 ml/rat of Freund's complete adjuvant [ADJUVANT COMPLETEFREUND, trade name, supplied by Difco] was used.
Then, the above Freund's complete adjuvant was administered intracutaneously into the subplantar region of right hind paw of each rat, and 24 hours after the administration, the swelling on the right hind paw of each rat was measured by volumetry to determine a swelling ratio. The above rats were separated into four groups each consisting of 6 rats such that the average swelling ratio of one group was nearly equal to that of another group.
Thereafter, one out of the four groups was used as Control group. A physiological saline solution of 10 % Nikkol was administered intraperitoneally to each rat of this group for the consecutive 22 days after the group separation, and the swelling on the right hind paw was measured by volumetry every day after the administration of the physiological saline solution of 10 % Nikkol. The average of swelling ratios as a group for each day was determined on the basis of the values of the sizes of the subplantar regions of the right hind paws obtained by the measurement prior to the administration of the Freund's complete adjuvant.
The procedure for Control group was repeated except that a physiological saline solution of 10 % Nikkol containing VIE-MAN in place of the physiological saline solution of 10 % Nikkol was administered intraperitoneally in such a dose that the amount of VIE-MAN was 10 mg/kg/day.
The procedure for Control group was repeated except that a physiological saline solution of 10 % Nikkol containing VIE-MAN in place of the physiological saline solution of 10 % Nikkol was administered intraperitoneally in such a dose that the amount of VIE-MAN was 30 mg/kg/day.
The remaining one group was used as Comparative Example group ⓕ. The procedure for Example groups @ and @ was repeated except that a physiological saline solution of 10 % Nikkol containing indomethacin which was a nonsteroidal anti-inflammatory preparation (antipyretic analgesic antiphlogistic preparation) in place of the physiological saline solution of 10 % Nikkol was administered intraperitoneally in such a dose that the amount of the indomethacin was 10 mg/kg/day, and the average of swelling ratios as a group was determined.

Molecules are shown by their SMILES.

`COc1ccc2c(c1)c(CC(=O)O)c(C)n2C(=O)c1ccc(Cl)cc1` [indomethacin, reference compound]: the “inhibition activity against antigen-adjuvant-induced inflammations” value in series [1] (Example 4, Fig. 3) is “significant inhibition activity at and after 2 hours”. In addition, the “inhibition activity against antigen-adjuvant-induced inflammation compared with VIE-MAN” value in series [1] (Example 4, Fig. 3, both 10 mg/kg intraperitoneally) was “much lower than that of VIE-MAN”. In addition, in series [2] (Example 8, Fig. 7, 20 mg/kg intraperitoneally, fasted rats, 16 hours after administration), the ulcer index result is reported as “about 30 mm”. Also, the “inhibition activity against acute inflammation (before the 14th day) and adjuvant arthritis (after 17th day)” value in the series on adjuvant arthritis was “showed inhibitory activity against both acute inflammation and adjuvant arthritis”. The “activity against acute inflammation and adjuvant arthritis compared with VIE-MAN” value in the series on adjuvant arthritis (indomethacin 10 mg/kg/day intraperitoneally) is listed as “much lower than that of VIE-MAN”.

For the compound `Cc1c(C)c2c(c(C)c1OC1OC(CO)C(O)C(O)C1O)CCC(C)(CCCC(C)CCCC(C)CCCC(C)C)O2` (racemic) [VIE-GLU, dl-α-tocopheryl-,8-D-glucoside], the “inhibition activity against antigen-adjuvant-induced inflammations” value in series [1] (Example 5, Fig. 4, 10 mg/kg) is “almost as superior as VIE-MAN”. Besides, the “average of the swelling ratios” value in series [1] (Example 5, Fig. 4) was “significantly lower than that of the swelling ratios of Control group”. Also, the “side effect on the digestive system” value in series [2] (rat, in vivo) is “nearly similar results to that of the test on VIE-MAN”.

With `Cc1c(C)c2c(c(C)c1OC1OC(CO)C(O)C(O)C1O)CCC(C)(CCCC(C)CCCC(C)CCCC(C)C)O2` (racemic) [VIE-MAN, dl-a-tocopheryl-a-D-mannoside], in series [1] (Example 4, Fig. 3), the “inhibition activity against antigen-adjuvant-induced inflammations” value was “excellent inhibition activity”. In addition, the “average of the swelling ratios” value in series [1] (Example 4, Fig. 3) is on record as “significantly lower than that of the swelling ratios of Control group”; in the series with adjuvant arthritis (10 and 30 mg/kg/day intraperitoneally for 22 days, versus Control group), “significantly lower than that of the swelling ratios of Control group”. Also, in series [2] (rat, in vivo, ip, 300 mg/kg), the “mucosal ulcer (ulcer index)” value is given as “no mucosal ulcer was observed”. In addition, in the series with adjuvant arthritis, the “inhibition activity against acute inflammation (before the 14th day) and adjuvant arthritis (after 17th day)” value is “excellent inhibition activity”.

The record behind these values is patent EP0452507A1, “MEDICINE COMPRISING TOCOPHERYL GLYCOSIDE AS ACTIVE INGREDIENT” (NIPPON HYPOX LABORATORIES INCORPORATED, priority 1989, dated 1991).
